# Source: patent US20250152616A1, “COMPOSITIONS FOR AND METHODS OF TREATING, PREVENTING, AND/OR MITIGATING PAIN” (Duke University, priority 2022, published 2025)
# Columns and labels:
# [1] = tested on: bone marrow mesenchymal stromal cells (BM-MSCs); assay: RT-qPCR of osteogenic genes in bone marrow MSCs; type: cell-based, mouse; settings: adenosine 30 μg/mL, 14 days, absence of osteogenic induction medium
# Description: MSCs were isolated as previously described with some modifications (Shih Y B, et al. (2019) Sci Adv. 5:eaax1387). Briefly, the femurs, tibiae, vertebrae of mice were harvested, crushed with pestle and mortar in harvest buffer (1% v/v FBS in PBS) to release bone marrow (BM) tissue, filtered through a 40-μm cell strainer, and centrifuged at 200 rcf. Cells were seeded in a 24-well plate at a cell density of 1 million cells/cm^2 in growth media (GM) containing α-MEM, FBS (10% v/v, ThermoFisher, Cat #16000044), penicillin/streptomycin (10000 U/mL; 1% v/v) and cultured in humidified incubator (37° C., 5% CO2). The medium was replaced after 3 days and further cultured for 6 days before passage. For passaging, cells were incubated in 0.25% trypsin-EDTA for 2 min at 37° C., detached with a cell scraper, neutralized by using GM, centrifuged, and sub-cultured at a density of 8000 cells/cm^2. All experiments were performed between 1-2 passage. Osteogenic medium (OM) was prepared by supplementing GM with 10 mM β-glycerophosphate (MilliporeSigma, Cat #G9422), 50 μM ascorbic acid-2-phosphate (MilliporeSigma, Cat #A8960), and 100 nM dexamethasone (MilliporeSigma, Cat #D4902).
# Cells, DRG, or bone/marrow tissues were analyzed for gene expression by quantitative real-time polymerase chain reaction (RT-qPCR). Nucleic acids were extracted with TRIzol, phase-separated with chloroform, and precipitated in isopropanol. […] Quantitative PCR was performed with iTaq Universal SYBR green reagent (Bio-Rad, Cat #1725124) with denaturation at 95° C. for 30 sec for one cycle, and amplification (denaturation+annealing/extension) at 95° C. for 5 sec and 60° C. for 30 sec for 40 cycles on a polymerase chain reaction (PCR) cycler (Bio-Rad, CFX96 Touch). […]
# The expression level of each target gene was normalized to the housekeeping gene and to their respective controls and presented as fold change expressed as 2^−ΔΔCt values. […]
# fractured tibiae = assay: Safranin O histology of fractured tibiae; type: in vivo, mouse; settings: 21 days post-fracture
# Description: In all experiments, 12-week-old to 16-week-old C57BL/6J male mice (Jackson Laboratory, Bar Harbor, ME) and Lepr-cre; tdTomato reporter mice were used. The average mouse weight was 25 grams and mice were housed in groups of four to five, and kept on a 12-hr light-dark cycle with lights off at 1800 hr. All animals had ad libitum access to chow (PMI LabDiet 5001) and water. Fracture surgeries were performed as previously described (Zeng Y, et al. (2020) Adv Mater. 32:e1906022). Animals were anesthetized by isoflurane and injected with 1 mg/kg buprenorphine SR-LAB (ZooPharm, Laramie, WY). Each mouse was then placed in a supine position with the right tibia disinfected. After skin incision and reflection, proximal to the right knee, a 0.7-mm pin was inserted from the tibial plateau through the medullary cavity to stabilize the tibia, and a cut was made at the tibial midshaft to induce a transverse fracture. Bupivacaine (0.5%; Hospira, Lake Forest, IL) at ˜1 mg/kg body weight was applied at the surgical site following wound closure using 2 reflex clips (5 mm). For animals treated with control and adenosine-loaded macroporous hydrogels, macroporous hydrogels measuring approximately 5 mm (length)×3 mm (width)×1 mm (thick) containing either 1.05±0.1 mg adenosine (ADO) or no adenosine (CTL) were implanted adjacent to the fractures immediately. […]
smiles,measurement,setting,value
Nc1ncnc2c1ncn2[C@@H]1O[C@H](CO)[C@@H](O)[C@H]1O [adenosine],Ibsp gene expression,[1],upregulated
same,Runx2 gene expression,[1],upregulated
same,Sp7 gene expression,[1],upregulated
same,callus size vs controls (histology),fractured tibiae,smaller callus size
same,cortical bone at fracture site vs controls (histology),fractured tibiae,more cortical bone across the fracture site
